Data: patent publication US20240192235A1, “CERAMIDE AND SPINGOMYELIN IN NEUROLOGICAL DISORDERS” (Duke University, priority 2021, published 2024)
Blank lines part the entries; values can stand above or below the compound they belong to.

Columns and labels:
[1] = cited from earlier work
SP1 R1 = SP1 R1 (Homo sapiens, UniProt P21453); conditions: cited from earlier work
WT and APP/PS1 mice [2] = experiment: Barnes Maze task; assay type: in vivo; conditions: 1 mg/kg/day for eight weeks, probe trial
Excerpt: (§1) APPswe/PS1dE9 (referred to as APP/PS1) and C57BI/6J (referred to as WT) mice were purchased from The Jackson Laboratory. The APP/PS1 is a double transgenic mouse expressing a chimeric mouse/human amyloid precursor protein (Mo/HuAPP695swe) and a mutant human presenilin 1 (PS1-dE9), both directed to CNS neurons. 50% of animals used in all experiments were male.
(§2) APP/PS1 mice and their WT littermates were used to examine fingolimod effects in vivo. Fingolimod treatment was provided in drinking water in a dark container and changed every 48 h to provide 1 mg/kg/day.
The behavioral apparatus consisted of a white flat, circular disk with 20 holes around its perimeter. One hole held the entrance to a darkened escape box not visible from the surface of the board, allowing the subject to exit the maze. The escape chamber position remained fixed during all trials. Mice learn the location of the escape hole using spatial reference points that were fixed in relation to the maze (extra-maze cues). The task consisted of one habituation trial on day 1 where the escape hole was presented to the animal, the animal remained in the escape box for 2 min. […] All sessions were recorded using Debut video software and assessed through ANY-maze software. For each trial, several parameters were recorded to assess performance. […] For the probe trial, time spent in the target quadrant and target hole were analyzed. […]

WT and APP/PS1 mice [3] = experiment: Novel object recognition (NOR) test; assay type: in vivo; conditions: 1 mg/kg/day for eight weeks
Excerpt: as §1, §2
Mice were habituated to experimental apparatus consisting of a gray rectangular open field (60 cm×50 cm×26 cm) for 5 min in the absence of any objects for 3 days. On the third day, after the habituation trial, mice were placed in the experimental apparatus in the presence of two identical objects and allowed to explore them for 5 min. […] All sessions were recorded using Noldus Media Recorder software. Exploration of the objects was defined as the mice facing and sniffing the objects within 2 cm distance and/or touching them, assessed with ANY-maze software. The ability of the mouse to recognize the novel object (discrimination index) was determined by dividing the mean time exploring the novel object by the mean of the total time exploring the novel and familiar objects during the test session. […]

[4] = Fingolimod plasma concentration after oral administration to WT mice (UHPLC, MS-MS); assay type: in vivo; conditions: both sexes, C57BL/6J, mouse, oral 1 mg/kg/day, read-out: Fingolimod levels in plasma
Method: To determine if fingolimod (e.g., Gilenya®, Novartis) oral administration achieves appropriate plasma concentration, 8 WT mice at 7 months old (50% females) were treated with fingolimod at 1 mg/kg/day for 4 wks. Plasma samples were collected at two time points (2nd and 4th weeks) after treatment and analyzed by UHPLC and MS-MS. Fingolimod levels in plasma were in ng/mL: 2nd week=8.03±0.24 and 4th week=10.02±0.4.

[5] = fingolimod-treated APP/PS1 mice

Chain of SP1 R1 (P21453 whole entry): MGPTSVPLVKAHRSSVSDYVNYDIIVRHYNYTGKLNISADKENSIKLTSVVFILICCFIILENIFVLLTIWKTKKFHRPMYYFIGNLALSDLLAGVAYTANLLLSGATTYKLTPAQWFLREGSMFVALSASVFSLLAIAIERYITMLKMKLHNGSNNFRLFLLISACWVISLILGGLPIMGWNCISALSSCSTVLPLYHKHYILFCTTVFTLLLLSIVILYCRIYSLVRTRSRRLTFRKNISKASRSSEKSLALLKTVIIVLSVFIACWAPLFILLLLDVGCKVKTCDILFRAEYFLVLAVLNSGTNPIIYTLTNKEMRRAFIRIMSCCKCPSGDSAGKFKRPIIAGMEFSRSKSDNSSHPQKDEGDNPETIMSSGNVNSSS

Structure (SMILES): CC(C)Oc1ccc(-c2nc(-c3cccc4c3CC[C@@H]4NCCO)no2)cc1C#N [Ozanimod]
cognitive processing speed as assessed by the Symbol Digit Modalities Test ([1]; compared to IFNβ1a treatment): improved
loss of thalamic volume ([1]; compared to IFNβ1a treatment): slower

Structure (SMILES): FC(F)(F)c1cccc(-c2noc(-c3cc(-c4ccccc4)c(C(F)(F)F)s3)n2)c1 [SEW2871]
Aβ mediated behavior abnormalities (SP1 R1): improve
tau phosphorylation (SP1 R1): decrease

Structure (SMILES): CCc1cc(/C(C)=N/OCc2ccc(C3CCCCC3)c(C(F)(F)F)c2)ccc1CN1CC(C(=O)O)C1 [Siponimod]
Symbol Digit Modalities Test (SDMT) oral score ([1]; compared with placebo, study months 12 and 24): benefit in favor of Siponimod
Brief Visuospatial Memory Test-Revised ([1]; compared with placebo): no statistically significant differences between groups
PASAT score ([1]; compared with placebo): no statistically significant differences between groups
low contrast visual acuity test ([1]; compared with placebo): small benefit in favor of Siponimod

concentration at 2 weeks ([4]; 2nd week): 8.03 ± 0.24 ng/mL
concentration at 4 weeks ([4]; 4th week): 10 ± 0.4 ng/mL
Structure (SMILES): CCCCCCCCc1ccc(CCC(N)(CO)CO)cc1 [fingolimod]
percentage of time spent in the target quadrant (WT and APP/PS1 mice [2]; [5]): 54.81±9.15%
percentage of time spent in the target quadrant (WT and APP/PS1 mice [2]; fingolimod-treated WT mice): 63.46±11.51%
NOR discrimination index (NOR-DI) (WT and APP/PS1 mice [3]; [5]): 0.40±0.13
NOR discrimination index (NOR-DI) (WT and APP/PS1 mice [3]; fingolimod-treated WT mice): 0.47±0.08
